Laboratory results as given in patent US11273166B2, “Methods and compositions for the treatment of obesity” (Monash University, priority 2017, dated 2022).

Columns and labels:
[1] = test system: PTP1B and TCPTP in the arcuate nucleus of the hypothalamus; assay: Celastrol i.p. for 10 days in high fat fed Ptpn1fl/fl: Ptpn2fl/fl mice, rAAV-Cre-eGFP vs rAAV-eGFP in ARC; format: in vivo, mouse; conditions: mice lacking PTP1B and TCPTP in the ARC; 20 μg/ml i.p., 10 consecutive days
Protocol: FIG. 28 The ability of celastrol to promote weight loss in obese mice is abrogated in mice lacking PTP1B and TCPTP in the arcuate nucleus of the hypothalamus. 12-week high fat fed Ptpn1^fl/fl: Ptpn2^fl/fl male mice were bilateral injected with rAAV-eGFP or rAAV-Cre-eGFP into the arcuate nucleus of the hypothalamus (ARC). Two-week post AAV administration mice received Celastrol (20 μg/ml, i.p.) for 10 consecutive days and effects on a) Body weights, b) food intake, c-d) adiposity and lean mass (EchoMRI) was determined

[2] = molecular target: T1, TCPTP in the arcuate nucleus of the hypothalamus (Mus musculus, UniProt Q06180); assay: Celastrol i.p. for 10 days in high fat fed Ptpn2fl/fl mice, rAAV-Cre-eGFP vs rAAV-eGFP in ARC; format: in vivo; conditions: mice lacking TCPTP in the ARC; 20 ug/ml i.p., 10 consecutive days
T1 construct: endogenous in cells; host or cells: arcuate nucleus of the hypothalamus of living high fat fed Ptpn2fl/fl mice
T1 sequence (Q06180 1-406): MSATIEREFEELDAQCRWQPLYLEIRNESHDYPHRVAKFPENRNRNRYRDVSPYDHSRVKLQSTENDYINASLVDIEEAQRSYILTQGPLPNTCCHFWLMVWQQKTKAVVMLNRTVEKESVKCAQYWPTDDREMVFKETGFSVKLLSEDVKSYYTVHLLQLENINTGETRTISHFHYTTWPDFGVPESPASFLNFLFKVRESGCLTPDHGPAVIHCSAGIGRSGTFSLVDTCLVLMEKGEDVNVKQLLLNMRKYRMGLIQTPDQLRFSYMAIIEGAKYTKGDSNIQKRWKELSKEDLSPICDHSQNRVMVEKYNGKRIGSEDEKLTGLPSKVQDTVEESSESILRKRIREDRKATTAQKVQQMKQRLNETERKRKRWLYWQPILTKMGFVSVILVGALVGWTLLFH
Protocol: (§1) 12-week high fat fed Ptpn2^fl/fl male mice were bilateral injected with rAAV-eGFP or rAAV-Cre-eGFP into the arcuate nucleus of the hypothalamus (ARC). Two-week post AAV administration mice received Celastrol (20 ug/ml, i.p.) for 10 consecutive days and effects on a-b) Body weights, b-c) food intake, e-f) adiposity and lean mass (EchoMRI) was determined.

[3] = molecular target: T2, PTP1B in the arcuate nucleus of the hypothalamus (Mus musculus, UniProt P35821); assay: Celastrol i.p. for 10 days in high fat fed Ptpn1fl/fl mice, rAAV-Cre-eGFP vs rAAV-eGFP in ARC; format: in vivo; conditions: mice lacking PTP1B in the ARC; 20 μg/ml i.p., 10 consecutive days
T2 construct: endogenous in cells; host or cells: arcuate nucleus of the hypothalamus of living high fat fed Ptpn1fl/fl mice
T2 sequence (P35821 1-432): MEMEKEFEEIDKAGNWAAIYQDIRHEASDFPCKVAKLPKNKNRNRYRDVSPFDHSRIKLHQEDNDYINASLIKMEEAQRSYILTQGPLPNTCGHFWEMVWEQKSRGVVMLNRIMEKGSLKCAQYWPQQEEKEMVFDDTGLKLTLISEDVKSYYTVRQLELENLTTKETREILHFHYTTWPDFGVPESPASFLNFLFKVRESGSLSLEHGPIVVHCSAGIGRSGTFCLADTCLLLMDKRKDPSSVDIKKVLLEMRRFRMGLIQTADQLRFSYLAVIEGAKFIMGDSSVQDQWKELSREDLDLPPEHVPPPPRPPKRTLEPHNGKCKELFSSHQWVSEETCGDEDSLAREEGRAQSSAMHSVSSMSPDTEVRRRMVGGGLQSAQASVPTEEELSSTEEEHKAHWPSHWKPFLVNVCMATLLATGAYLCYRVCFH
Protocol: as §1, with “FIG. 30. […] 12-week” for “12-week”, “Ptpn1^fl/fl” for “Ptpn2^fl/fl”, “μg/ml,” for “ug/ml,”, “c-d)” for “b-c)”

`CC1=C(O)C(=O)C=C2C1=CC=C1[C@@]2(C)CC[C@@]2(C)[C@@H]3C[C@](C)(C(=O)O)CC[C@]3(C)CC[C@]12C` [celastrol] was tested, and the “ability to promote weight loss in obese mice” value (“ability to promote weight loss” for short) [1] was “abrogated”, the “ability to promote weight loss” value [2] was “partially attenuated” and the “ability to promote weight loss” value [3] was “partially attenuated”.
